Reference: ChEMBL document CHEMBL3813602, “Disseminins and Spiciferone Analogues: Polyketide-Derived Metabolites from a Fungicolous Isolate of Pestalotiopsis disseminata” (J Nat Prod, 2016)
Active and inactive are the calls of the source.

Tests used:
Assay type in all cases: functional, organism-based
Aspergillus flavus = assay: Antimicrobial activity against Aspergillus flavus at 100 ug/disk after 48 hrs by disk diffusion method
Escherichia coli [1] = assay: Antimicrobial activity against Escherichia coli at 100 ug/disk after 24 hrs by disk diffusion method
Candida albicans [2] = assay: Antimicrobial activity against Candida albicans at 100 ug/disk after 48 hrs by disk diffusion method
Fusarium verticillioides = assay: Antimicrobial activity against Fusarium verticillioides at 100 ug/disk after 48 hrs by disk diffusion method
Bacillus subtilis [3] = assay: Antimicrobial activity against Bacillus subtilis at 100 ug/disk after 24 hrs by disk diffusion method
Staphylococcus aureus [4] = assay: Antimicrobial activity against Staphylococcus aureus at 100 ug/disk after 24 hrs by disk diffusion method
Staphylococcus aureus [5] = assay: Antimicrobial activity against Staphylococcus aureus at 50 ug/disk after 24 hrs by disk diffusion method
Candida albicans [6] = assay: Antimicrobial activity against Candida albicans at 50 ug/disk after 48 hrs by disk diffusion method
Escherichia coli [7] = assay: Antimicrobial activity against Escherichia coli at 50 ug/disk after 24 hrs by disk diffusion method
Bacillus subtilis [8] = assay: Antimicrobial activity against Bacillus subtilis at 50 ug/disk after 24 hrs by disk diffusion method

Measured: Activity

CCC(C)C(=O)[C@@H]1CO[C@@H](C)[C@@H](C)[C@H]1CO (mixture of isomers)
inactive: Aspergillus flavus | Escherichia coli [1] | Candida albicans [2] | Fusarium verticillioides | Bacillus subtilis [3] | Staphylococcus aureus [4]

CC[C@@](C)(C(=O)CCO)C1=CC(=O)[C@@H](C)[C@H](C)O1
inactive: Staphylococcus aureus [5] | Candida albicans [6] | Escherichia coli [7] | Bacillus subtilis [8]

CC[C@H](C)C(=O)[C@H]1[C@H](CO)[C@H](C)[C@H](C)O[C@@H]1O
inactive: Aspergillus flavus | Escherichia coli [1] | Candida albicans [2] | Fusarium verticillioides | Bacillus subtilis [3] | Staphylococcus aureus [4]

C[C@H](C(=O)[C@H]1CO[C@@]2(C)OC[C@@H]1[C@@H]2C)[C@@H](C)O
inactive: Aspergillus flavus | Escherichia coli [1] | Candida albicans [2] | Fusarium verticillioides | Bacillus subtilis [3] | Staphylococcus aureus [4]

C[C@H]1[C@H]2[C@H](OC[C@@H]2C(=O)[C@@H](C)[C@@H](C)O)O[C@H]1C
inactive: Aspergillus flavus | Escherichia coli [1] | Candida albicans [2] | Fusarium verticillioides | Bacillus subtilis [3] | Staphylococcus aureus [4]

CC[C@@](C)(C(=O)CCO)C1=CC(=O)[C@H](C)[C@H](C)O1
inactive: Staphylococcus aureus [5] | Candida albicans [6] | Escherichia coli [7] | Bacillus subtilis [8]
